Data taken from patent US20240269104A1, “METHOD FOR TREATING PARKINSON'S DISEASE” (Olatec Therapeutics, Inc., priority 2021, published 2024).

Experiments:
[1] = test system: MPTP-injected-mouse model of PD; assay: accelerating rotarod test after MPTP-acute administration; type: in vivo, C56BL/J mice
Experimental: MPTP (Sigma-Aldrich, St. Louis, MO) can be administered at two dose regimens: acute and sub-acute. For the acute regimen, MPTP was administered intraperitoneally (i.p.) four times in one day. Administrations were performed every two hours over an eight-hour period. For the subacute regimen, mice received a single i.p. administration of MPTP per day for five consecutive days. A 20 mg/kg free-base MPTP dose was used for every dose in both models. Sterile saline was used as the vehicle. Control mice were injected with saline solution using the same administration protocol and were defined as sham. Mice were sacrificed at different days after the first injection of MPTP. We used the acute protocol in C56BL/J mice to study dopamine neurodegeneration, inflammation, and motor deficits, whereas the subacute model was used to evaluate α-synuclein aggregation in the following examples. […]
The accelerating rotarod (Ugo Basile, Gemonio, ITALY) was used to evaluate locomotor function in mice subjected to the MPTP-acute administration. An accelerating program was selected to detect locomotor impairments associated to MPTP (Keshet et al, J Comp Neurol 504:690-701, 2007; Rui et al., Int J Neuropsychopharmacol., 2020). We used a rotarod device with a cylinder rod of three centimeters in diameter. The mice underwent a training period of three consecutive days prior to MPTP administration. In each training session, mice were subjected to run at four constant speeds (10 rpm, 20 rpm, 30 rpm, and 40 rpm) for 150 seconds at each speed. If mice fell during that time, they were put back in the rotarod immediately. On the testing day, we used an increased-speed program. Mice were placed on the rotarod device for 150 seconds at 30 rpm as warm up. Immediately after 150 seconds, the accelerating session started, and the speed increased from 30 rpm to 70 rpm for 500 seconds. Time to fall was recorded. Accelerating sessions were repeated three times with a resting interval of five minutes between sessions. Average time to fall per mouse was calculated and used as final measurement.
We then evaluated the effect of dapansutrile. To avoid overloading animals with fluid (which can lead to fatal heart failure), dapansutrile was administered through oral gavage at 200 mg/kg in water. Dapansutrile was given 30 minutes before the first injection of MPTP. Mice treated with saline were used as control. We also included a sham-group that received saline through intraperitoneal injections instead of MPTP. […]

[2] = test system: IL-1β; assay: IL-1β in brain homogenates by ELISA after MPTP; type: in vivo, mice; conditions: 200 mg/kg once each day; 4 days after MPTP-acute
Text: (§1) It has been reported that administration of MPTP induces the assembly of NLPR3 inflammasome in the brain. Mice were sacrificed after anesthesia by cervical dislocation at 4 and 7 days after MPTP administration. Brains were collected, and the striatum (St) and ventral midbrain (VM) areas of both hemispheres were excised and frozen in liquid nitrogen. Samples were homogenized in RIPA buffer (Thermo Fisher, Waltham, MA) supplemented with protease inhibitor (Thermo Fisher) using a TissueRuptor (Qiagen, Germantown, MD). Protein concentration was determined using a BCA Protein Assay Kit (Thermo Fisher) according to manufacturer's instructions. Samples were diluted to 2 mg/ml in the same extraction buffer.
(§2) Levels of IL-1β, IL-18, IL-6, and IL-17A from brain homogenates were measured by ELISA DuoSet kit (R&D Systems, Minneapolis, MN). ELISA kit for IL-1β detects 92-95% of the 17 kDa form and only 8-5% of the precursor form of this cytokine. 96-well plates (ThermoFisher Scientific) were coated with capture antibody. Samples were incubated for two hours at room temperature. Detection antibodies and streptavidin-HRP were added. TMB ELISA (cBioscience, San Diego, CA) was used as substrate solution. Results were measured in a microplate reader (Bio-Tek, Santa Clara, CA). Final values were normalized by the protein concentration of each sample. 4-5 mice per group were used for each cytokine.

[3] = test system: IL-6; assay: IL-6 in brain homogenates by ELISA after MPTP; type: in vivo, mice; conditions: 200 mg/kg once each day; seven days after MPTP-acute
Text: as §1, §2

[4] = test system: white blood cells, lymphocytes, monocytes, and granulocytes; assay: peripheral blood cell counts after MPTP-acute administration; type: in vivo, mice; conditions: 200 mg/kg, day seven after MPTP-acute
Experimental: Seven days after MPTP-acute administration, peripheral blood and spleen were isolated from each mouse, and hematological changes in the peripheral blood and cytokine production in the spleen were evaluated. […] White blood cells, lymphocytes, monocytes, and granulocytes were measured from the peripheral blood using a HemaTrue cell counter (Heska, Loveland, CO). Spleens were isolated and mechanically passed through a 70 μm cell strainer (ThermoFisher) in PBS. Cells were plated in a 96-well plate at a concentration of 200,000 cells/well in RPMI medium (Coring, New York, NY) with 10% FBS. After that, cells were stimulated with LPS at 1 μg/ml and 5 μg/ml. RPMI medium was used as control. After 72 hours, supernatant was isolated to measure the levels of IL-6. Cells were lysed with RIPA buffer (ThermoFisher) supplemented with protease inhibitor (ThermoFisher) to measure IL-1α levels. In both cases, 5-6 mice per group were used.

[5] = test system: α-synuclein; assay: α-synuclein Western blot in the ventral midbrain after MPTP-subacute administration; type: in vivo, mice; conditions: 200 mg/kg for 6 days, 24 hours after last MPTP injection
Experimental: MPTP (Sigma-Aldrich, St. Louis, MO) can be administered at two dose regimens: acute and sub-acute. For the acute regimen, MPTP was administered intraperitoneally (i.p.) four times in one day. Administrations were performed every two hours over an eight-hour period. For the subacute regimen, mice received a single i.p. administration of MPTP per day for five consecutive days. A 20 mg/kg free-base MPTP dose was used for every dose in both models. Sterile saline was used as the vehicle. Control mice were injected with saline solution using the same administration protocol and were defined as sham. Mice were sacrificed at different days after the first injection of MPTP. We used the acute protocol in C56BL/J mice to study dopamine neurodegeneration, inflammation, and motor deficits, whereas the subacute model was used to evaluate α-synuclein aggregation in the following examples.
Since MPTP promotes α-synuclein aggregation after subacute regimen, we evaluated the effect of dapansutrile on the levels of this protein. 24 hours after the last injection of MPTP, mice were sacrificed. The VM was excised, and proteins were resolved as described in Example 9. VM was selected as the region to evaluate α-synuclein accumulation according to previous publications. […] The levels of α-synuclein were determined by Western blot. […]

[6] = 200 mg/kg once a day, three days after MPTP-acute
[7] = 200 mg/kg oral gavage 30 minutes before first MPTP injection, day 3 after MPTP

## CS(=O)(=O)CCC#N [dapansutrile, 3-methanesulfonylpropionitrile]
[1]; 60 mg/kg once a day, three days after MPTP-acute
  time to fall on accelerating rotarod versus MPTP+saline: did not show any significant improvement
[1]; [6]
  mice that reached 8 cm/s on the rotarod: 7%
  mice that reached the 7 cm/s speed on the rotarod: approximately 50%
  time to fall on accelerating rotarod versus MPTP+saline: doubling
  time to fall on accelerating rotarod versus sham mice: nearly the same as the sham mice
[1]; [7]
  rotarod latency to fall, difference against sham group: not significant differences
  time on the rotarod more than mice treated with water (latency to fall): around 90 seconds
[2]
  levels of IL-1β in the ventral midbrain (VM): no changes associated to dapansutrile
  reduction of levels of IL-1β in the striatum (St): 24%
[3]
  levels of IL-6 in the ventral midbrain (VM): No effects were detected
  reduction of levels of IL-6 in the striatum (St): 26%
[4]
  increase in number of circulating granulocytes: 33%
  increase in number of circulating lymphocytes: 24%
[5]
  levels of monomeric form of α-synuclein (17 kDa) in the ventral midbrain: significantly reduced
  levels of oligomeric forms of α-synuclein (150-30 kDa) in the ventral midbrain: significantly reduced
